According to US8329681B2, “Methods and compositions for the efficient delivery of therapeutic agents to cells and animals” (University of Massachusetts, priority 2005, dated 2012):

Columns and labels:
HeLa cells [1] = test: Cell Titer 96 AQueous One Solution (MTS) cytotoxicity assay; format: cell-based, human; settings: liposomal formulation alone or in combination with DOPE and DOPC as co-lipid
Experimental: Alternatively, the cytotoxicity of the lipids was measured using the Cell Titer 96® AQueous One Solution Cell Proliferation Assay. The Cell Titer 96® AQueous One Solution Reagent contains a tetrazolium compound [3-(4,5-dimethylthiazol-2-yl)-5-(3-carboxymethoxyphenyl)-2(4-sulfophenyl)-2H-tetrazolium, inner salt; MTS^17] and an electron coupling reagent (phenazine ethosulfate; PES). The cytotoxicity assay was performed in 96 well plates by maintaining the ratio of number of cells to amount of cationic lipid constant as in transfection experiments. MTS was added 24 hours after transfection. Cell Titer 96® AQueous One Solution Reagent (20 ul) was pipetted into each well of the 96-well assay plate containing the samples in 100 μl of culture medium. In case of HeLa cells the plates were incubated for 2 hours, whereas for FL83B cells, plates were incubated for 4 hours at 37° C. in a humidified, 5% CO2 atmosphere. Absorbance was then recorded at 490 nm.
In a second experiment, FL83B and HeLa cells were plated on 96 well plate 18 hours prior to transfection. Then, liposome was added to each well and incubated for 24 hours. Thereafter, Cell Titer 96® AQueous One Solution Reagent was added and incubated for 4 hours. The MTS tetrazolium compound (Owen's reagent) is bioreduced by viable cells into a colored formazan product that is soluble in tissue culture […]. The absorbance of the formazan was measured at 490 nm with a 96 well plate reader.

A549 cells = test: Transfection of pSV-β-gal plasmid, β-galactosidase reporter activity; format: cell-based, human
Experimental: (§1) Cationic lipids and the co-lipids in chloroform were dried under a stream of N2 gas and vacuum-desiccated for a minimum of 6 h to remove residual organic solvent. The dried lipid film was hydrated in sterile deionized water at cationic lipid concentration of 1 mM for a minimum of 12 h. Liposomes were vortexed to remove any adhering lipid film and probe sonicated until a clear translucent solution is formed. The pDNA solution was added to the liposomes, mixed properly by pipeting and shaken on a rotary shaker (15-30 mins.) before use.
(§2) Cells were seeded at a density of 20,000 (for HeLa cells), 16,000 (for A-549 cells), 8,000 (for FL83B cells) per well in a 96-well plate 18-24 h before transfection. An amount of 0.30 μg of pDNA was complexed with varying amounts of lipids (to give +/− ratios of 0.3:1, 1:1, 3:1 and 9:1) in plain OPTIMEM (total volume made up to 100 μl) and then shaken on a rotary shaker at room temperature for 20-30 minutes. The complexes were then added to the cells. After 5 h of incubation, 200 μl of complete medium containing 10% FBS in DMEM for HeLa and 10% FBS in F-12K for FL83B and A549 was added to the cells. The medium was changed after 24 h and the reporter gene activity was estimated 48 h after transfection. Cells were washed with PBS (100 μl) and lysed in […] lysis buffer (5× reporter lysis buffer diluted to 1×, working concentration). The β-galactosidase activity per well was estimated by adding 50 μl of 2× substrate solution (1.33 mg/ml of ONPG, 0.2 M sodium phosphate, pH 7.15 and 2 mM magnesium chloride) to the lysate in a 96-well plate. Absorbance of the product ortho-nitrophenol was measured at 420 nm. The absorbance values reported are the average values from two replicate experiments performed in the same plate on the same day. Each transfection experiment was performed three times on three different days to control for variations in transfection efficiency.
(§3) Briefly, the efficacy of various lipid formulations were tested in three cell lines A-549, FL83B and HeLa cells and the transfection efficiencies of the cationic liposomal formulations were compared with a commercially available transfection reagent (e.g., Lipofectamine 2000).

HeLa cells [2] = test: as above; format: cell-based, human
Experimental: as §1, §2, §3

FL83B cells = test: as above; format: cell-based, rat
Experimental: as §1, §2, §3

CDK9 expression = test: In vivo delivery of CDK9 siRNA with liposome by tail vein injection, CDK9 expression in spleen; set-up: species or system BALB/c mice; settings: Cy3-labeled CDk9 siRNA (25 μg) and liposome (125 μg), repeated 4 and 8 h later, within the initial 24 h after treatment
Experimental: Total RNA was extracted from tissues or cultured cells using Trizol (Invitrogen, Carlsbad, Calif.), and real-time RT-PCR for CDK9 and GAPDH mRNA quantification was carried out using 200 ng of total RNA and the QuantiTect SYBR Green RT-PCR Kit (Qiagen, Valencia, Calif.) according to the manufacturer's instructions. The ratio of CDK9 and GAPDH mRNA was calculated and expressed as a group average relative to the control group. The specific probe for detection of CDK9 mRNA levels was designed to the following regions of the CDK9 mRNA ORF, the forward primer 5′ TCGGACCAA AGCCTCACCGTATAA 3′, the reverse primer 5′ […] TTG 3′
Male BALB/c mice, 6-8 weeks of age and weighting 20-22 g, were purchased form the Jackson Laboratory (Bar Harbor, Me.). Synthetic siRNA were delivered in vivo using following method. For each mice 25 μg of siRNA in 100 μl of HEPES Buffered Saline (20 mM HEPES, 150 mM NaCl, pH 7.4) was transferred into a sterile tube. In a separate sterile tube 125 μg of liposome was mixed with 200 μl HEPES Buffered Saline. The siRNA solution was transferred to the tube containing liposome solution and then incubated at room temperature for 20 minutes. 200 μl of the complexes was injected via the tail vein, using a 1-ml syringe and 27-gauge needle. The injection was repeated 4 and 8 h later. Control mice were injected with an equal volume of liposome. At 24 h after the last injection, the mice were sacrificed and tissues were harvested for further analysis. CDK9 expression level was normalized with GAPDH and then compared to those obtained from control animals and shown as percent expression. The data represent the mean value +/− SD of three to five mice in each group.
Briefly, the ability of the new synthesized liposome to deliver siRNA in mice was investigated. BALB/c mice were administrated with complexes of Cy3-labeled CDk9 siRNA (25 μg) and liposome (125 μg) via normal pressure tail vein injection. The injection was repeated 4 and 8 h later. Control mice were administrated with an equal amount of liposome. […]

[3] = alone, lipid:DNA charge ratios 1:1 and 0.3:1
[4] = in combination with DOPE, charge ratio 3:1

SMILES: CCCCCCCCC=CCCCCCCCC(=O)OC(COC(=O)CCC(=O)OC1CCC2(C)C(=CCC3C2CCC2(C)C(C(C)CCCC(C)C)CCC32)C1)C[N+](C)(C)C.[I-] (centres unmarked) [Lipid 8, N,N,N-Trimethyl-N-[2-(9(Z)-octadecanoyloxy),3-succinyloxy(4-cholesteryloxy)-propyl]ammonium iodide]
- cytotoxicity as compared to a control (HeLa cells [1]): non-toxic
- transfection efficiency compared with Lipofectamine 2000 (A549 cells; [3]): one fold less
- transfection efficiency, fold less than Lipofectamine 2000 (A549 cells; in combination with DOPC): about 1 fold
- transfection efficiency compared with Lipofectamine 2000 (A549 cells; [4]): comparable
- transfection efficiency, fold less than Lipofectamine 2000 (HeLa cells [2]; [3]): ~1.5 fold
- transfection efficiency compared with Lipofectamine 2000 (HeLa cells [2]; in combination with DOPC, charge ratio of 1.1): comparable
- transfection efficiency, fold less than Lipofectamine 2000 (HeLa cells [2]; [4]): more than 1.5 fold
- transfection efficiency compared with Lipofectamine 2000 (FL83B cells; [3]): one fold less
- transfection efficiency compared with Lipofectamine 2000 (FL83B cells; in combination with DOPC, charge ratio 9.0:1.0 to 0.3:1.0): about two fold less
- transfection efficiency, fold less than Lipofectamine 2000 (FL83B cells; [4]): more than 1.5 fold
- CDK9 expression level in the spleen decreased by (CDK9 expression): 28%
